Data on 13 compounds can be found in patent US20240252688A1, “COMPOSITIONS AND METHODS FOR ENHANCED PROTEIN PRODUCTION” (HDT Bio Corp., priority 2021, published 2024).

Counter-ions that a name gives are not always drawn.

For series [1], the system named is IFIT2. Description: NP-35 co-transfection: IFIT2 induction. Type of series: cell-based, human. To be noted: NP-35-formulated compound, A549-Dual cells.
Series [2] relates to C57BL/6 mice. Description: IM injection of repRNA-SEAP with nanoparticle-encapsulated inhibitors: serum SEAP. In kind it is in vivo. To be noted: 500 μM dose level versus equivalent no compound group, days 3-28. Here is the method:
The ten candidate compounds were formulated in NP-1 nanoparticle emulsion to evaluate their effect on expression when co-delivered with repRNA. All compounds were readily soluble in non-polar solvents which enabled dissolution in the lipophilic squalene oil phase of NP-1. A probe sonication process was adapted to formulate candidate compounds in 1 mL batches of nanoparticle emulsions. The z-average nanoparticle diameter was measured by dynamic light scattering (DLS) and ranged from 110-130 nm. Activity of compounds formulated in nanoparticle emulsions was tested both in vitro (FIG. 11A). Cells were transfected with 20 ng repRNA per well in the presence of IFN and delivered with empty nanoparticles (no inhibitor) or nanoparticle encapsulating a compound inhibitor delivered at a calculated 0.5 μM per well. […] C57BL/6 female mice (6-8 weeks old; n=3/group) were injected by IM route with 10 μg repRNA-SEAP complexed with empty nanoparticles (no compound) or nanoparticles encapsulating a small molecule inhibitor at 500 μM. The positive control group received an IFNAR-1 blocking monoclonal antibody (MAR1-5A3) by intraperitoneal (IP) injection one day before IM injection of NP-1/repRNA-SEAP. […]

For series [3], the system named is BALB/c mice. In words: Systemic (IV) compounds with IM NP-1/repRNA-ZIKV-117: serum ZIKV-117. In kind it is in vivo. To be noted: for ZIKV-117 expression compared to no compound group: compound IV (Dinaciclib 5 mg/kg, CDKI-73 5 mg/kg, AZD4573 1 mg/kg), 10 μg repRNA-ZIKV-117 IM, days 3-28. Here is the method: The purpose of the experiment was to evaluate the effect of systemically administered compound inhibitors on protein expression.
A molar ratio of nitrogen to phosphate (N:P) for each of the formulation was adjusted. […] Each compound was formulated as an aqueous solution or suspension following instructions from the vendor (MedChemExpress). At the same time as systemic compound treatment, mice were given 10 μg repRNA-encoding ZIKV-117 mAb complexed to nanoparticles by IM injection in the hind leg. Mice were bled on days 3, 5, 7, 10, 14, 21 and 28 after administration of NP-1/repRNA-ZIKV-117, and assayed for ZIKV-117 levels in serum. The positive control group received an IFNAR-1 blocking monoclonal antibody (MAR1-5A3) by intraperitoneal (IP) injection one day before administration of NP-1/repRNA-ZIKV-117.

Series [4] concerns A549-Dual cells. Description: Single-point screen: cell viability by CellTiter-Glo. The settings on record: A549-Dual cells incubated overnight with compound at 50 μM, then NP-1+mRNA 20 ng/well + IFN 1:50. (In ATP-based viability assays light output follows the ATP content of the culture.)
Description: Finally, cell lysates were assayed with the CellTiter-GLO® assay (Promega) to obtain a luminescent-based measure of cell viability. In summary, the readouts from the high throughput screen included the primary measure of nLuc protein expression and three secondary readouts: IFIT, NF-κB and cell viability.
For each assay, A549-dual cells were plated at a seeding density of about 5×10^4 cells per well. Cells were incubated overnight with compounds at 50 microMolar (μM) in 1% v/v dimethyl sulfoxide (DMSO). For control wells, 1% DMSO was added to each well. After about 24 hours, the culture medium was removed, and cells were transfected with NP-1+mRNA at 20 ng/mRNA/well in Opti-MEM® media (Thermofisher). Interferon (IFN) was diluted to 1:50 in all test wells except for the RNA only wells and media only wells. Anti-IFN was diluted 1:1000 in “RNA+anti-IFN+IFN” wells. Cells were incubated for 4 hours, and culture medium was added to the Opti-MEM® medium. After 24 hours, assay supernatants were collected and analyzed for nLuc expression, IFIT2 (qLuc), and NFκB (qBLUE-SEAP™, InvivoGen) activation. Cells were then lysed, and cell viability was determined by CellTiter-Glo® (Promega) assay.
Series [5] deals with A549-Dual cells. In words: Single-point kinase inhibitor library screen: nLuc expression from NP-1+mRNA-nLuc in IFN-treated cells. In kind it is cell-based, human. The settings on record: compound 50 μM pre-treatment, NP-1+mRNA 20 ng/well + IFN; for fold induction at 50 µM: Homo sapiens, read-out: fold nLuc over RNA + IFN. How it is done:
(§1) The cells produce secreted embryonic alkaline phosphatase (SEAP), under the control of the interferon beta […] minimal promoter fused to five NF-κB binding sites. The cells also secrete lucia luciferase under the control of IFIT2 promoter.
To measure protein expression from mRNA, which is the primary readout for compound down selection, mRNA encoding a secreted version of nanoluciferase (mRNA-nLuc) was used. Protein expression was measured via a luminometer using standard techniques.
As additional criterion, expression in compound treated cells was compared relative to mRNA-transfected cells without IFN (“RNA only”) (data not shown).
A library of small molecule kinase inhibitors was screened for the ability to enhance expression of mRNA-encoded genes when co-delivered with mRNA.

Series [6] deals with NF-κB. Description: Single-point screen: NFκB activation (SEAP reporter). Type of series: cell-based, human. The settings on record: A549-Dual cells, compound 50 μM pre-treatment, NP-1+mRNA 20 ng/well + IFN; for fold induction at 50 µM: Homo sapiens, 24 h, read-out: fold NFkB over IFN.
Description: as §1

In series [7] the test system is NF-κB. In words: NP-35 co-transfection: NF-κB induction. Type of series: cell-based, human. To be noted: highest concentrations of NP-35-formulated compound. Here is the method:
The objective of this experiment was to evaluate co-transfection of LNP (e.g., NP-35) with lead small molecule inhibitor compounds for enhancing protein expression from repRNA in transfected cells. […] LNP was formulated according to NP-35 formulation. Additionally, nanoparticles were also formulated according to […] formulation. About 5×10^4 A549-Dual cells were incubated at 37° C. with 5% CO2 for 18-24 hours with the compound at a concentration ranging from 1 μg to 0.06 ng. The cells were then treated with repRNA-nLuc, IFN, and nanoparticles (NP-35 or NP-30). The treated cells were incubated at 37° C. with 5% CO2 for 18-24 hours. nLuc expression was measured by Nano-GLO assay and plotted against the concentration of repRNA-nLuc that was used for the transfection (FIG. 14A-14H).

Series [8] deals with IFIT2. Description: Single-point screen: IFIT2 activation (Lucia luciferase, QUANTI-Luc). In kind it is cell-based, human. To be noted: A549-Dual cells, compound 50 μM pre-treatment, NP-1+mRNA 20 ng/well + IFN; for fold induction at 50 µM: Homo sapiens, 24 h, read-out: fold IFIT over IFN.
Description: as §1

Series [9] relates to A549-Dual cells. In words: NP-35 co-encapsulating repRNA-nLuc and Dinaciclib: nLuc expression. To be noted: 0.5 mM Dinaciclib co-encapsulated, A549-Dual cells + IFN. In kind it is cell-based, human. Here is the method: Briefly, A549-Dual cells were incubated at 37° C. with 5% CO2 for 18-24 hours. […] About 5×10^4 cells were transfected with the formulation at different concentrations in the presence of IFN. The transfected cells were incubated at 37° C. with 5% CO2 for 18-24 hours. nLuc expression was measured by Nano-GLO assay and plotted against the concentration of repRNA-nLuc that was used for the transfection (FIG. 15).

In series [10] the target is mouse IFN alpha/beta receptor (IFNAR-1) (mouse) (UniProt P33896). In words: cell-based or functional assay.
mouse IFN alpha/beta receptor (IFNAR-1) (mouse), sequence (P33896 27-590 limits assumed): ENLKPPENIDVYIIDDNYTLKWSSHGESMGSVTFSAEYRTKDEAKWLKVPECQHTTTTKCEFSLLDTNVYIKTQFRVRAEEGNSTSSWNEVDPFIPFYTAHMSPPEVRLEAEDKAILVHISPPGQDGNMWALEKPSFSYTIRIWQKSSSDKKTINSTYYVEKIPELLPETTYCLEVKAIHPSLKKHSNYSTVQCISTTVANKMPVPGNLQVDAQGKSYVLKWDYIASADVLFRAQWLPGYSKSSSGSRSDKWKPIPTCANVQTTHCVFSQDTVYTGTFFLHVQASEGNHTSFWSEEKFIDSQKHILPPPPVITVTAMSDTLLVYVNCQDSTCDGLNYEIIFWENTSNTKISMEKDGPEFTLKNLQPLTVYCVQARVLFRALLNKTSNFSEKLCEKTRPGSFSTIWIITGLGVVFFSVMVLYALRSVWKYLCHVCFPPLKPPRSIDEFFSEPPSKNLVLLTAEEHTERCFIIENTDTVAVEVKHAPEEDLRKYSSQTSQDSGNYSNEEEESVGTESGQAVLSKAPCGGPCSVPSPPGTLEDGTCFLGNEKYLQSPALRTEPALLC

In the case of `CC(=O)N[C@@H]1CCC[C@H](C(=O)Nc2cc(-c3cnn4c3CC(C)(C)C4)c(Cl)cn2)C1` [AZD4573, (1S,3R)-3-acetamido-N-[5-chloro-4-(5,5-dimethyl-4,6-dihydropyrrolo[1,2-b]pyrazol-3-yl)pyridin-2-yl]cyclohexane-1-carboxamide], the IFIT2 induction entry in [1] is given as “significant dose-dependent reduction in IFIT2 induction”. Also, in series [2], the “total protein (SEAP) expression, AUC of expression kinetics” value was “significant increase in total protein expression”. Moreover, in [3], the “ZIKV-117 expression compared to no compound group” value is “higher total expression than no compound group but not statistically significant”.
As to `CC(C)n1cnc2c(NCc3nc4c(F)c(F)ccc4[nH]3)nc(N3CCCC[C@H]3CCO)nc21` [CDK12-IN-3, 2-[(2S)-1-[6-[(4,5-difluoro-1H-benzimidazol-2-yl)methylamino]-9-propan-2-ylpurin-2-yl]piperidin-2-yl]ethanol], in series [1], the IFIT2 induction entry was “significant dose-dependent reduction in IFIT2 induction”.
Regarding `COc1ccc(F)cc1-c1cc(NC(=O)[C@@H]2CCCNC2)ncc1Cl` [CDK-IN-2, (3R)-N-[5-chloro-4-(5-fluoro-2-methoxyphenyl)pyridin-2-yl]piperidine-3-carboxamide], the “% viability” value in series [4] amounted to 23%. For the same compound, the IFIT2 induction result in series [1] is “significant dose-dependent reduction in IFIT2 induction”. For the same compound, the fold induction at 50 µM in series [5] is 157; in [6], 0.28; in [8], 1.06. In addition, the “IFN-beta mediated NF-κB induction relative to cells transfected with NP-35” value in series [7] was “slight increase in IFN-beta mediated NF-κB induction”.
On to `CNc1nc(C)c(-c2nc(Nc3cccc(S(N)(=O)=O)c3)ncc2F)s1` [CDKI-73, 3-[[5-fluoro-4-[4-methyl-2-(methylamino)-1,3-thiazol-5-yl]pyrimidin-2-yl]amino]benzenesulfonamide], for which the “ZIKV-117 expression compared to no compound group” value in series [3] was “higher total expression than no compound group but not statistically significant”. The “IFN-beta mediated NF-κB induction relative to cells transfected with NP-35” value in series [7] is listed as “slight increase in IFN-beta mediated NF-κB induction”.
In the case of `CCc1cnn2c(NCc3ccc[n+]([O-])c3)cc(N3CCCC[C@H]3CCO)nc12` [Dinaciclib, 2-[(2S)-1-[3-ethyl-7-[(1-oxidopyridin-1-ium-3-yl)methylamino]pyrazolo[1,5-a]pyrimidin-5-yl]piperidin-2-yl]ethanol], the IFIT2 induction entry in series [1] is listed as “significant dose-dependent reduction in IFIT2 induction”. Further, the “nLuc expression relative to NP-35/repRNA-nLuc without Dinaciclib” value in [9] is recorded as “significantly enhanced nLuc expression”. In addition, in series [3] (Dinaciclib 5 mg/kg IV), the “ZIKV-117 expression compared to positive control (anti-IFNAR-1)” value was “more rapid and higher magnitude expression”. Also, in [3], the “ZIKV-117 expression compared to no compound group” value is given as “significantly enhanced ZIKV-117 expression”.
On to `CC(C)c1c2cc(-c3ccnc(NC4CCC(NC5CCOCC5)CC4)n3)ccc2nn1C` (stereo not drawn) [LY2857785, 4-N-[4-(2-methyl-3-propan-2-ylindazol-5-yl)pyrimidin-2-yl]-1-N-(oxan-4-yl)cyclohexane-1,4-diamine], for which, in [7], the “IFN-beta mediated NF-κB induction relative to cells transfected with NP-35” value was “slight increase in IFN-beta mediated NF-κB induction”.
Same read-out and setting: next, `Nc1nc(N[C@H]2C[C@@H]3CC[C@H]2C3)sc1C(=O)c1ccccc1[N+](=O)[O-]` [MC180295, [4-amino-2-[[(1S,2S,4R)-2-bicyclo[2.2.1]heptanyl]amino]-1,3-thiazol-5-yl]-(2-nitrophenyl)methanone]: “slight increase in IFN-beta mediated NF-κB induction”.
In the case of `C[C@@]1(O)CCC[C@H]1n1c(=O)c(C(F)F)cc2cnc(NC3CCN(S(C)(=O)=O)CC3)nc21` [PF-06873600, 6-(difluoromethyl)-8-[(1R,2R)-2-hydroxy-2-methylcyclopentyl]-2-[(1-methylsulfonylpiperidin-4-yl)amino]pyrido[2,3-d]pyrimidin-7-one], the “% viability” value in [4] is listed as 55%. Also, the fold induction at 50 µM in [5] was determined as 120; in series [6], 0.83; in series [8], 1.08.
For `Cn1nccc1Nc1nccc(-c2ccn([C@H](CO)c3ccc(Cl)c(F)c3)c(=O)c2)n1` [Ravoxertinib hydrochloride, 1-[(1S)-1-(4-chloro-3-fluorophenyl)-2-hydroxyethyl]-4-[2-[(2-methylpyrazol-3-yl)amino]pyrimidin-4-yl]pyridin-2-one], in that order: 96%, 162, 1.17 and 0.24.
Consider `COc1ccc(CCNCc2ccc(OCc3ccc(Cl)nc3)c(OC)c2)cc1OC` [SBE13 (Hydrochloride)], for which the “% viability” value in series [4] turned out to be 105%. For the same compound, the “fold nLuc over RNA + IFN” value in [5] came out at 179.07 fold. In addition, in [6], the “fold NFkB over IFN” value was determined as 0.73 fold. In addition, the “fold IFIT over IFN” value in [8] was found to be 0.32 fold.
Consider `CC[C@H](CO)Nc1nc(NCc2ccccc2)c2ncn(C(C)C)c2n1` [Seliciclib, (2R)-2-[[6-(benzylamino)-9-propan-2-ylpurin-2-yl]amino]butan-1-ol], for which the “% viability” value in series [4] stood at 45%. In addition, the fold induction at 50 µM is 118 in series [5], 0.55 in [6] and 1.32 in series [8].
For `O=C1NCCSc2c1sc1ccc(O)cc21` [kb NB 142-70, 9-hydroxy-3,4-dihydro-2H-[1]benzothiolo[2,3-f][1,4]thiazepin-5-one], in that order: 52%, 187, 0.61 and 2.31.
With “IFNAR-1 blocking monoclonal antibody (MAR1-5A3)”, the SEAP expression in serum of C57BL/6 mice on day seven after IM injection of NP-1/repRNA-SEAP in series [10] worked out at 10 fold.
